Like-named read-outs stand apart in the source and are kept apart here.
Columns and labels:
[1] = system: HCT116 colon cancer cells; assay: HCT116 cell viability and proliferation assay (MTS); type: cell-based; conditions: HCT116 cells, 72 hours incubation, MTS, mean of 3 independent experiments, read-out: HCT116 D3 GI50
[2] = system: PC-3 prostate cancer cells; assay: PC3 cell viability and proliferation assay (MTS); type: cell-based; conditions: PC3 cells, 72 hours incubation, MTS, mean of 3 independent experiments, read-out: PC3 D3 GI50
USP8 = biological target: T1, USP8 (Homo sapiens, UniProt P40818); assay: USP8 activity assay; type: biochemical; conditions: 400 nM Ub-AMC, pH8.8, 30 min pre-incubation at 25° C., 60 min at 37° C.; sigmoidal fit; AF: Autofluorescent; read-out: USP 8 (inhibition of cysteine protease activity)
T1 sequence (P40818 1-1118): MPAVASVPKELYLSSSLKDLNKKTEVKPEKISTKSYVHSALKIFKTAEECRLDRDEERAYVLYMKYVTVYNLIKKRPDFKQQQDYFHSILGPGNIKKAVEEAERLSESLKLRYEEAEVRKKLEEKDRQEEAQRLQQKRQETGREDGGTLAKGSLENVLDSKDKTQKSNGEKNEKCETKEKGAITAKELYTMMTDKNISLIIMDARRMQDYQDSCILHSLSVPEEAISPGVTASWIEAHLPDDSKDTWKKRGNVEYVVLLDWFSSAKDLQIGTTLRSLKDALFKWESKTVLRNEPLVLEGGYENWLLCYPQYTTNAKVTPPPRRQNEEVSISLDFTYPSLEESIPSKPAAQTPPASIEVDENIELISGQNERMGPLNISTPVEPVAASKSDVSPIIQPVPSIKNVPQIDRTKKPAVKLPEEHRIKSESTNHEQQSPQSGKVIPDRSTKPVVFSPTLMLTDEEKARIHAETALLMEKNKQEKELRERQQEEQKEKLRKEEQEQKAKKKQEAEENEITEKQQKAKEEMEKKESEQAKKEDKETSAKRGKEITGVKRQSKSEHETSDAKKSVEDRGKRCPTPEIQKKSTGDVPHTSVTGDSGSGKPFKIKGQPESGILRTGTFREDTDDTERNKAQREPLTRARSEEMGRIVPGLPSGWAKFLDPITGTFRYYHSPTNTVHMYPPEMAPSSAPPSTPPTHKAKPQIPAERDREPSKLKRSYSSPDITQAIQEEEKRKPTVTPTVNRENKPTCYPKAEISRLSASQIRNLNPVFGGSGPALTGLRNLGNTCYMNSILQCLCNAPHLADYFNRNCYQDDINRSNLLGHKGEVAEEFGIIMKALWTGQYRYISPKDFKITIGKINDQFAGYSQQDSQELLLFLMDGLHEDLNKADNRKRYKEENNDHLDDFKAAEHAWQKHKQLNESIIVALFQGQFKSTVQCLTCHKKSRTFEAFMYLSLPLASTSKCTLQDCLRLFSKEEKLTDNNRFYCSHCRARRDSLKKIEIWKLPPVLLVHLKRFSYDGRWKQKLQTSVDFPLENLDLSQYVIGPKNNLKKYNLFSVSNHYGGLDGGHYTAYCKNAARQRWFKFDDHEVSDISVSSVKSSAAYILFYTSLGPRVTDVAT

Uch-L3 = biological target: T2, Uch-L3 (Homo sapiens, UniProt P15374); assay: UCH-L3 activity assay; type: biochemical; conditions: 400 nM Ub-AMC, 13 pM enzyme, 30 min pre-incubation at 25° C., 60 min at 37° C.; sigmoidal fit; AF: Autofluorescent; read-out: Uch-L3 (inhibition of cysteine protease activity)
T2 sequence (P15374 1-230): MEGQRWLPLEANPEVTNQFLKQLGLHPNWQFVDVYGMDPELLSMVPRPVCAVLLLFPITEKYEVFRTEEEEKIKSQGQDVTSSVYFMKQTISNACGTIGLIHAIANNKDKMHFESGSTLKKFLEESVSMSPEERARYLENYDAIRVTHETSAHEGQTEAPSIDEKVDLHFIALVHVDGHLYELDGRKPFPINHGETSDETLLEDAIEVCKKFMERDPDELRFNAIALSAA
Protocol: Bovine Serum Albumin 0.05 mg·ml^−1 pH7.6). Compounds stocks (100 mM) were stored at −20° C. in DMSO. […] Reactions were performed as duplicates in Black LJL 96 well plates (HE microplates; Molecular Devices; 20 μl final reaction volume). The substrate concentration for Uch-L3 was 400 nM Ub-AMC (Boston Biochem). The concentration of the enzyme (Uch-L3) in specificity assays was 13 pM. The concentrations were determined in order to perform specificity assays under initial velocities at fixed substrate concentration. Compounds were pre-incubated with enzymes for 30 minutes at 25° C. Reactions were initiated by addition of substrate to the plates containing the enzymes (+/−compounds) diluted in assay buffer. Reactions were incubated for 60 minutes at 37° C. Reactions were stopped by adding acetic acid (100 mM final). Readings were performed on a Pherastar Fluorescent Reader (BMG). δ Emission 380 nm; δ Excitation=460 nm. Data (mean values+/− standard deviation) were analyzed as % of control (no compound) and plotted as percentage versus the Log of the compound concentration using GraphPad (Prism). Data were fitted to a sigmoidal model (variable slope).

USP7 = biological target: T3, USP7 (Homo sapiens, UniProt Q93009); assay: USP7 activity assay; type: biochemical; conditions: 400 nM Ub-AMC, 152 pM enzyme, 30 min pre-incubation at 25° C., 60 min at 37° C.; sigmoidal fit; read-out: USP 7 (inhibition of cysteine protease activity)
T3 construct: His tag (from pFastBac-HT vector) (N); made in house; host or cells: insect cells (Sf9 or High Five), baculovirus
T3 sequence (Q93009 whole entry): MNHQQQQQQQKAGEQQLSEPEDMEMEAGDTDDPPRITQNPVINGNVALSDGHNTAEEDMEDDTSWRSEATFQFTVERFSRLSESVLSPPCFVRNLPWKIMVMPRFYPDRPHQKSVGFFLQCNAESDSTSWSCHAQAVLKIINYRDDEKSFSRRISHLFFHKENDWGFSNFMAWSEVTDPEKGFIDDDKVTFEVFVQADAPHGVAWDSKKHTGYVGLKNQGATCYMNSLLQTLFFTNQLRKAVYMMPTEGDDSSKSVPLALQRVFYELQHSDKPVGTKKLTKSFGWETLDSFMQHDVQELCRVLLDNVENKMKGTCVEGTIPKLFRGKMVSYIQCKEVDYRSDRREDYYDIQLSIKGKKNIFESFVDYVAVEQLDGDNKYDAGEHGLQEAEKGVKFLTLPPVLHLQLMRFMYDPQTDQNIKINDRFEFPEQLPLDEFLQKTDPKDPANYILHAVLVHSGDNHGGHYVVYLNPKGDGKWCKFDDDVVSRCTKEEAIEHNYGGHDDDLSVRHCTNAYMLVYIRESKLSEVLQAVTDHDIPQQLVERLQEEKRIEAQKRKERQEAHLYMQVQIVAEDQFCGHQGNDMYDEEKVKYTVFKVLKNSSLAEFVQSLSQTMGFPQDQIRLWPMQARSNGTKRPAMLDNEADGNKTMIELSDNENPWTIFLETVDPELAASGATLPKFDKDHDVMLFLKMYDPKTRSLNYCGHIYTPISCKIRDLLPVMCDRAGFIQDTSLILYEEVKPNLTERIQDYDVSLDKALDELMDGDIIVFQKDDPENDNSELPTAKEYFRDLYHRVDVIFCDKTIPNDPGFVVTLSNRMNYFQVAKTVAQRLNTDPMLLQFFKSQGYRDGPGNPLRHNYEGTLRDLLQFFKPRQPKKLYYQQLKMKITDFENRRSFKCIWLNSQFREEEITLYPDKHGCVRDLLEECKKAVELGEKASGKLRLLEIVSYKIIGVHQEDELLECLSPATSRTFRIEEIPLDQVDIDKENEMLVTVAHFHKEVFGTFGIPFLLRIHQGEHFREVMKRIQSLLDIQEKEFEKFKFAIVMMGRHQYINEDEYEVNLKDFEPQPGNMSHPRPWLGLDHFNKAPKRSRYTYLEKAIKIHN

GI50 ([1]; Homo sapiens, HCT-116) [nM] | GI50 ([2]; Homo sapiens, PC-3) [nM] | Structure (SMILES) | also measured
500 | 390 | CON=C1c2cc(Cl)ccc2-c2nc(C#N)c(C#N)nc21 [Example 24a, 7-Chloro-9-methoxyimino-9H-indeno[1,2-b]pyrazine-2,3-dicarbonitrile] | 
190 | 1400 | N#Cc1nc2c(nc1C#N)-c1cc(Cl)ccc1C2=O [Example 25, 6-Chloro-9-oxo-9H-indeno[1,2-b]pyrazine-2,3-dicarbonitrile] | 
940 | 620 | C=CCON=C1c2cc(Cl)ccc2-c2nc(C#N)c(C#N)nc21 [Example 24b, 9-Allyloxyimino-7-chloro-9H-indeno[1,2-b]pyrazine-2,3-dicarbonitrile] | 
 |  | N#Cc1nc2c(nc1C(N)=O)-c1ccccc1/C2=N\O [Example 33, 2-cyano-9-[hydroxyimino]-9H-indeno[1,2-b]pyrazine-3-carboxylic acid amide] | GI50 [1]: 1600 nM; IC50 (USP8): 733 nM; GI50 [2]: 1200 nM; IC50 (Uch-L3): 596 nM; IC50 (USP7): 13000 nM

Structure (SMILES) | GI50 ([1]; Homo sapiens, HCT-116) [nM] | GI50 ([2]; Homo sapiens, PC-3) [nM] | also measured
COc1nc2c(nc1C#N)C(O)c1ccccc1-2 (stereo not shown) [Example 2, 9-hydroxy-3-methoxy-9H-indeno[1,2-b]pyrazine-2-carbonitrile] | > 10000 |  | GI50 ([2]; Homo sapiens, PC-3, 72 h): > 10000 nM
